Assay results reported in the supplement of paper PMC10307832.

Experiments:
Assay in all cases: relative viability (nuclei count vs DMSO), 5 days (fraction); higher = more cells survive
YM155 + Phenformin = compound: COCC[n+]1c2c(n(Cc3cnccn3)c1C)C(=O)c1ccccc1C2=O [YM155] + N=C(N)NC(=N)NCCc1ccccc1 [Phenformin] (partner 250 µM)
Summary of the method: (§1)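 For relative viability, nuclei counts in treated wells were divided by those in vehicle wells. Lung cancer cell lines had been pin-tool dosed in 1536-well plates the day after seeding and cultured for 5 days, then fixed and stained in one step (final 0.05% Triton X-100, 1% formaldehyde, 1 ug/ml Hoechst) and imaged at 4×. Doses were one drug alone or a fixed anchor-drug dose plus five library-drug doses (not always all listed) in √10 steps, and values are duplicate-plate medians.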

YM155 + Foretinib = compound: COCC[n+]1c2c(n(Cc3cnccn3)c1C)C(=O)c1ccccc1C2=O [YM155] + COc1cc2c(Oc3ccc(NC(=O)C4(C(=O)Nc5ccc(F)cc5)CC4)cc3F)ccnc2cc1OCCCN1CCOCC1 [Foretinib] (partner 0.25 µM)
Summary of the method: as §1

Quizartinib + Dasatinib = compound: CC(C)(C)c1cc(NC(=O)Nc2ccc(-c3cn4c(n3)sc3cc(OCCN5CCOCC5)ccc34)cc2)no1 [Quizartinib] + Cc1nc(Nc2ncc(C(=O)Nc3c(C)cccc3Cl)s2)cc(N2CCN(CCO)CC2)n1 [Dasatinib] (partner 0.075 µM)
Summary of the method: as §1

Quizartinib + Alpelisib = compound: CC(C)(C)c1cc(NC(=O)Nc2ccc(-c3cn4c(n3)sc3cc(OCCN5CCOCC5)ccc34)cc2)no1 [Quizartinib] + Cc1nc(NC(=O)N2CCC[C@H]2C(N)=O)sc1-c1ccnc(C(C)(C)C(F)(F)F)c1 [Alpelisib] (partner 2 µM)
Summary of the method: as §1

| Cell Line | relative viability (YM155 + Phenformin; first compound 0.002 µM) | relative viability (YM155 + Phenformin; first compound 0.006325 µM) | relative viability (YM155 + Phenformin; first compound 0.02 µM) | relative viability (YM155 + Phenformin; first compound 0.06325 µM) | relative viability (YM155 + Foretinib; first compound 0.002 µM) | relative viability (YM155 + Foretinib; first compound 0.006325 µM) | relative viability (YM155 + Foretinib; first compound 0.02 µM) | relative viability (YM155 + Foretinib; first compound 0.06325 µM) | relative viability (Quizartinib + Dasatinib; first compound 0.003162 µM) | relative viability (Quizartinib + Dasatinib; first compound 0.01 µM) | relative viability (Quizartinib + Dasatinib; first compound 0.1 µM) | relative viability (Quizartinib + Alpelisib; first compound 0.001 µM) | relative viability (Quizartinib + Alpelisib; first compound 0.003162 µM) | relative viability (Quizartinib + Alpelisib; first compound 0.01 µM) | relative viability (Quizartinib + Alpelisib; first compound 0.03162 µM) | relative viability (Quizartinib + Alpelisib; first compound 0.1 µM) | relative viability (Quizartinib + Dasatinib; first compound 0.001 µM) | relative viability (Quizartinib + Dasatinib; first compound 0.03162 µM) |
| --- | --- | --- | --- | --- | --- | --- | --- | --- | --- | --- | --- | --- | --- | --- | --- | --- | --- | --- |
| HCC-15 | 0.465 | 0.464 | 0.464 | 0.494 | 0.992 | 1.05 | 0.888 | 0.515 | 0.58 | 0.594 | 0.6 | 0.833 | 0.881 | 0.941 | 0.884 | 0.787 |  |  |
| NCI-H1915 | 0.351 | 0.357 | 0.368 | 0.355 | 1.05 | 1.08 | 1.08 | 0.963 | 0.329 | 0.262 | 0.324 | 1.03 | 1.01 | 1.06 | 1.11 | 1.16 | 0.344 | 0.303 |
| NCI-H1666 | 0.567 | 0.599 | 0.578 | 0.579 | 0.917 | 0.996 | 0.988 | 0.942 | 0.782 | 0.737 | 0.757 | 0.793 | 0.956 | 1.03 | 0.742 | 1.02 | 0.836 | 0.582 |
| NCI-H1651 | 0.316 | 0.366 | 0.326 | 0.377 | 0.864 | 0.785 | 0.84 | 0.603 | 0.429 | 0.392 | 0.441 | 0.749 | 0.872 | 1.04 | 0.751 | 0.904 | 0.306 | 0.296 |
| NCI-H2347 | 0.489 | 0.395 | 0.582 | 0.448 | 0.767 | 0.907 | 1.38 | 0.892 | 0.298 | 0.296 | 0.304 | 0.655 | 0.995 | 1.12 | 1.11 | 1.14 | 0.3 | 0.376 |
| NCI-H1944 | 0.208 | 0.17 | 0.202 | 0.205 | 0.818 | 0.888 | 0.852 | 0.91 | 0.217 | 0.204 | 0.224 | 0.691 | 0.826 | 0.898 | 0.89 | 0.805 | 0.214 | 0.199 |
| HCC-366 | 0.592 | 0.55 | 0.628 | 0.597 | 0.924 | 0.899 | 0.951 | 1.11 | 0.548 | 0.575 | 0.657 | 0.348 | 0.31 | 0.448 | 0.404 | 0.358 | 0.531 | 0.612 |
| NCI-H1734 | 0.43 | 0.451 | 0.404 | 0.509 | 0.853 | 0.723 | 0.914 | 0.989 | 0.421 | 0.431 | 0.453 | 0.561 | 0.716 | 0.642 | 0.699 | 0.665 | 0.408 | 0.481 |
| 201T | 0.405 | 0.443 | 0.492 | 0.475 | 1.16 | 1.11 | 1.05 | 1.16 | 0.563 | 0.621 | 0.57 | 0.759 | 0.957 | 0.988 | 0.987 | 0.982 | 0.588 | 0.574 |
| PC-3 [JPC-3] | 0.454 | 0.521 | 0.475 | 0.473 | 1.04 | 1.08 | 1.11 | 1.02 | 0.967 | 1.09 | 1.03 | 0.953 | 1.01 | 1.14 | 1.02 | 0.998 | 0.925 | 1.01 |
| NCI-H1563 | 0.632 | 0.682 | 0.63 | 0.65 | 0.89 | 0.935 | 1.09 | 1.02 | 0.505 | 0.458 | 0.493 | 0.893 | 0.871 | 0.945 |  | 0.826 | 0.523 | 0.468 |
| HCC-827 | 0.419 | 0.404 | 0.375 | 0.473 | 1.03 | 1.09 | 1.07 | 1.06 | 0.396 | 0.325 | 0.281 | 0.952 | 0.858 | 0.965 | 0.976 | 0.987 | 0.315 | 0.274 |
| LXF-289 | 0.522 | 0.524 | 0.506 | 0.532 | 1 | 1.01 | 1.02 | 0.97 | 0.21 | 0.29 | 0.29 | 0.992 | 0.999 | 1.1 | 1.01 | 0.947 | 0.218 | 0.254 |
| NCI-H520 | 0.58 | 0.535 | 0.636 | 0.604 | 0.662 | 0.671 | 0.68 | 0.831 | 0.192 | 0.244 | 0.171 | 0.792 | 0.768 | 0.929 | 0.837 | 0.597 | 0.169 | 0.198 |
| RERF-LC-KJ | 0.386 | 0.432 | 0.462 | 0.463 | 0.945 | 0.837 | 0.909 | 0.854 | 0.755 | 0.794 | 0.681 | 0.78 | 0.597 | 0.782 | 0.747 | 0.69 | 0.765 | 0.414 |
| ABC-1 | 0.271 | 0.239 | 0.233 | 0.207 | 1.03 | 0.824 | 0.206 | 0.2 | 0.572 | 0.661 | 0.502 | 0.951 | 0.996 | 1.02 | 0.497 | 1.12 | 0.578 |  |
| NCI-H3122 | 0.362 | 0.36 | 0.384 | 0.364 | 0.923 | 1 | 0.927 | 0.933 | 0.565 | 1 | 0.838 | 0.567 | 0.693 | 1.01 | 0.831 | 0.651 | 0.92 | 0.721 |
| HARA | 0.476 | 0.444 | 0.48 | 0.425 | 0.892 | 1.03 | 0.94 | 1.04 | 0.231 | 0.252 | 0.268 | 0.485 | 0.78 | 0.893 | 0.791 | 0.749 |  | 0.215 |
